Data: patent US9340590B2 (priority 2011, dated 2016)
Positions of bridges follow the written chain, without caps; N, C: chain ends. Non-standard residues stand in square brackets, D forms with d. Residues, ends and D or L forms follow the SMILES beside them. Trp(1-Me) = Cn1cc(C[C@H](N)C(=O)O)c2ccccc21

What was measured:
[1] = target: hNav1.7 (Homo sapiens, UniProt Q15858); assay: cell-based; conditions: Nav1.7 Use IC50
[2] = target: hNav1.5 (Homo sapiens, UniProt Q14524); assay: cell-based
hNav1.5, sequence (Q14524 whole entry, looked up): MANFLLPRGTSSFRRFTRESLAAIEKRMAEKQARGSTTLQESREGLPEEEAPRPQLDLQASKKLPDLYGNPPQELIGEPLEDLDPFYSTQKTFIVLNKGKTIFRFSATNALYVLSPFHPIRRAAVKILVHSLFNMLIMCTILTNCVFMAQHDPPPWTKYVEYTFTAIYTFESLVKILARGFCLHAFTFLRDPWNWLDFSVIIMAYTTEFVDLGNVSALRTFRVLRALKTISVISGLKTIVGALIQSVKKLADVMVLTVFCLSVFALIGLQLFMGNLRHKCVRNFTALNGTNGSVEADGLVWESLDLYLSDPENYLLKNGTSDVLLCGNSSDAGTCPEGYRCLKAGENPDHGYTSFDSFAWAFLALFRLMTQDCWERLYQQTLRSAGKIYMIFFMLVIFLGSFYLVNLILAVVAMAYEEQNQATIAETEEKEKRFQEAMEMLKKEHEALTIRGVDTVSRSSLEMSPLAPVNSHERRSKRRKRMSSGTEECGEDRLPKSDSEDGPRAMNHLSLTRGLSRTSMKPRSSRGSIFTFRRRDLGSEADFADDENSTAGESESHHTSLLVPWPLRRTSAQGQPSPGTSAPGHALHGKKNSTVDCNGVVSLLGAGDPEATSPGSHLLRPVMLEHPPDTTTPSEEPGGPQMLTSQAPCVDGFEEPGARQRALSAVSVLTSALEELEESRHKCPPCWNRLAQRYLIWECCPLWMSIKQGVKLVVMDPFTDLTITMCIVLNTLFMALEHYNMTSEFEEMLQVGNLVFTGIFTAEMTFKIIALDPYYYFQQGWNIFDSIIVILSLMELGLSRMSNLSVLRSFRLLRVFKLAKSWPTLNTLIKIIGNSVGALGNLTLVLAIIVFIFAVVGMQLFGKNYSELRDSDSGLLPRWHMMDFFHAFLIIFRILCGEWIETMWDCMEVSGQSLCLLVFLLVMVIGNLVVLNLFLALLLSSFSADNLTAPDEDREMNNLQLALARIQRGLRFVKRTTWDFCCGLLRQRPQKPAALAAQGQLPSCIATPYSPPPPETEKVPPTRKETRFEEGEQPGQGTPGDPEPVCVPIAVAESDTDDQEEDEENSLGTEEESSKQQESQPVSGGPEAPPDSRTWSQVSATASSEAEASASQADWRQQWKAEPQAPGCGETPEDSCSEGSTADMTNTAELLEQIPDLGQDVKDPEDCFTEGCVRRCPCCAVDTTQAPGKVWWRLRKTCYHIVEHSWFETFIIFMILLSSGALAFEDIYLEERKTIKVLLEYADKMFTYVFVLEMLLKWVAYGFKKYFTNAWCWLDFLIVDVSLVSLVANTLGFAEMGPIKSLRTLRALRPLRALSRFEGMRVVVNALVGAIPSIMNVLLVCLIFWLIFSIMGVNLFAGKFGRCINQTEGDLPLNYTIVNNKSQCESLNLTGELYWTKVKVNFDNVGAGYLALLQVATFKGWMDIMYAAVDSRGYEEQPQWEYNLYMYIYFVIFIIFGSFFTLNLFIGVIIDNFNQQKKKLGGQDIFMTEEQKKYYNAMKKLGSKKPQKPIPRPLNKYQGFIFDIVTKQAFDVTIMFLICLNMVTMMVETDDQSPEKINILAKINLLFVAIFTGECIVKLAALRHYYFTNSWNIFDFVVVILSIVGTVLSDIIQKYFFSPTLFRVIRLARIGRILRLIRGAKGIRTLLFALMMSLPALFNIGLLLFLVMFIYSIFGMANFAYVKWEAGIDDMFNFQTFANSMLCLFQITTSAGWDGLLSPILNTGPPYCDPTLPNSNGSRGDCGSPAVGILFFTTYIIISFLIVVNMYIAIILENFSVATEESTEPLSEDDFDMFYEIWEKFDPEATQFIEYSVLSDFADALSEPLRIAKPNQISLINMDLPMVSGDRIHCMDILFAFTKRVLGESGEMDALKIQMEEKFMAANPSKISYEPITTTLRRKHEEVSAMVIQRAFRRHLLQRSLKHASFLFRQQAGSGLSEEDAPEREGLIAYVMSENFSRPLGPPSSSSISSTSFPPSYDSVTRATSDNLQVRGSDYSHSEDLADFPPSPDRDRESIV

hNav1.7, sequence (Q15858 whole entry, looked up): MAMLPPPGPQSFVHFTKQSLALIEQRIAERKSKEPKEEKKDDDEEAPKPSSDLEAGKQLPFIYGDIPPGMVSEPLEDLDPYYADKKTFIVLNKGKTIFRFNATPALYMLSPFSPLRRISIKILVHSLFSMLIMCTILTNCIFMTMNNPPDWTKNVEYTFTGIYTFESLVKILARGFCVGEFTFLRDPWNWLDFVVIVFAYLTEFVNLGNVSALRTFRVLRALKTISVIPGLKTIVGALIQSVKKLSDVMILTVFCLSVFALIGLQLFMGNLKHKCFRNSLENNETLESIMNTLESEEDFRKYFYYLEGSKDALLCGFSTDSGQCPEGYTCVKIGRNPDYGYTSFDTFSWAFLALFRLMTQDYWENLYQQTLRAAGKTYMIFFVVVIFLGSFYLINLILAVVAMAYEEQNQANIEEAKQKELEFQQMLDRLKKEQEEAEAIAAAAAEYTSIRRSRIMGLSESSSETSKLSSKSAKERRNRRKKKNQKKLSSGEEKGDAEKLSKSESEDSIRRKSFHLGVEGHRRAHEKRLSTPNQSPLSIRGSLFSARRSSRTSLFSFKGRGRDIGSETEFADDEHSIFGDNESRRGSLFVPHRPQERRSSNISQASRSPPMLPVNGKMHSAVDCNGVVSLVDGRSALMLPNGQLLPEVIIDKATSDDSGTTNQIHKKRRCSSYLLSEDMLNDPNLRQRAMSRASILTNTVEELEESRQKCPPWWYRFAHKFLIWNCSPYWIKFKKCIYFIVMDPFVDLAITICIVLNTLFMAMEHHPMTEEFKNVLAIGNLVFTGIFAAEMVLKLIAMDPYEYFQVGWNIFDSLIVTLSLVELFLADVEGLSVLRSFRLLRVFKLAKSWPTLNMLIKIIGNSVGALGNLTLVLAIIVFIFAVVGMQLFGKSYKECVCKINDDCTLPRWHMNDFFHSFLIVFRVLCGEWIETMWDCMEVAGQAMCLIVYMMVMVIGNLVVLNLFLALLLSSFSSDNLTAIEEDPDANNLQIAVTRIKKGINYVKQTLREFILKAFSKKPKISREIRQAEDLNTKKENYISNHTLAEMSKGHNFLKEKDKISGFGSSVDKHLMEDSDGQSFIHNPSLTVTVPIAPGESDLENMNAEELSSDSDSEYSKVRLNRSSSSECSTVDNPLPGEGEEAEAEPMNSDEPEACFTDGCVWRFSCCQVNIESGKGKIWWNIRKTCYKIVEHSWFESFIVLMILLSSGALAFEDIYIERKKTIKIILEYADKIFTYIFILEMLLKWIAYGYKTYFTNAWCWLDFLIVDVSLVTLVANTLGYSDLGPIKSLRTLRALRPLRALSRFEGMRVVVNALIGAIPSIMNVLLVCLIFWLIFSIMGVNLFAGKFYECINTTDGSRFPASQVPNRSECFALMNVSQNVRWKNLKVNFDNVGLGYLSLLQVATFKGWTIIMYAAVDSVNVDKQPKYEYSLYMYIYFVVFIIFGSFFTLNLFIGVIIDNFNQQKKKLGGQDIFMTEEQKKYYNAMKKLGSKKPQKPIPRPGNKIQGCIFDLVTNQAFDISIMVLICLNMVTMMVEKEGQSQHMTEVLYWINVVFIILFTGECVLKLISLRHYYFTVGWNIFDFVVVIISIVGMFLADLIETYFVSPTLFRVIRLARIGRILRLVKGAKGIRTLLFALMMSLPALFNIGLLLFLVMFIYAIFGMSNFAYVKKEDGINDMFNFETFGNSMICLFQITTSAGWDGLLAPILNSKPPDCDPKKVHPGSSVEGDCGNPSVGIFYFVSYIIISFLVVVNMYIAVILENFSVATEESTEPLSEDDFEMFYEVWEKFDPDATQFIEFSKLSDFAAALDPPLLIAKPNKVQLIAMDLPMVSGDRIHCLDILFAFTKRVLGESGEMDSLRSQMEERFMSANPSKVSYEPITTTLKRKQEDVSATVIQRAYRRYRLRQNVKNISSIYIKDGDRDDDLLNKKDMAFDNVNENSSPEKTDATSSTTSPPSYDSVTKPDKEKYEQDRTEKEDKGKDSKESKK

SMILES | IC50 [1] | IC50 [2]
CC[C@H](C)[C@@H]1NC(=O)[C@@H]2CSSC[C@@H]3NC(=O)[C@H](C(C)C)NC(=O)[C@H](CC(C)C)NC(=O)[C@H](CC(N)=O)NC(=O)[C@@H]4CCCN4C(=O)[C@H](CCCNC(=N)N)NC(=O)[C@H](CSSC[C@H](NC(=O)[C@@H](N)CC(=O)O)C(=O)N[C@@H](CC(C)C)C(=O)NCC(=O)N[C@@H](CC(C)C)C(=O)N[C@@H](CC(C)C)C(=O)N[C@@H](CCCNC(=N)N)C(=O)N[C@@H](CCCCN)C(=O)N2)NC(=O)[C@H](CSSC[C@@H](C(=O)N[C@@H](CCCCN)C(=O)N[C@@H](Cc2ccc(O)cc2)C(=O)N[C@H](C(=O)N[C@@H](Cc2ccccc2)C(N)=O)C(C)C)NC(=O)[C@H](Cc2c[nH]c4ccccc24)NC(=O)[C@H](CCCCN)NC(=O)[C@H](Cc2c[nH]cn2)NC(=O)[C@H]([C@@H](C)O)NC(=O)[C@H](CCCNC(=N)N)NC(=O)[C@H](CO)NC3=O)NC(=O)[C@H](CCCCN)NC(=O)[C@H](CC(=O)O)NC(=O)[C@H](CC(N)=O)NC(=O)[C@H](CC(=O)O)NC(=O)[C@@H]2CCCN2C1=O [[Leu5,6]GpTx-1(1-34)] (H-DCLGLLRKCIPDNDKCCRPNLVCSRTHKWCKYVF-NH2; disulfide 2-17, 9-23, 16-30) | 11 nM | > 10000 nM
CC[C@H](C)[C@@H]1NC(=O)[C@@H]2CSSC[C@@H]3NC(=O)[C@H](C(C)C)NC(=O)[C@H](CC(C)C)NC(=O)[C@H](CC(N)=O)NC(=O)[C@@H]4CCCN4C(=O)[C@H](CCCCN)NC(=O)[C@H](CSSC[C@H](NC(=O)[C@@H](N)CC(=O)O)C(=O)N[C@@H](CC(C)C)C(=O)NCC(=O)N[C@@H](Cc4ccccc4)C(=O)N[C@@H](CCSC)C(=O)N[C@@H](CCCNC(=N)N)C(=O)N[C@@H](CCCCN)C(=O)N2)NC(=O)[C@H](CSSC[C@@H](C(=O)N[C@@H](CCCCN)C(=O)N[C@@H](Cc2ccc(O)cc2)C(=O)N[C@H](C(=O)N[C@@H](Cc2ccccc2)C(N)=O)C(C)C)NC(=O)[C@H](Cc2c[nH]c4ccccc24)NC(=O)[C@H](CCCCN)NC(=O)[C@H](Cc2cnc[nH]2)NC(=O)[C@H]([C@@H](C)O)NC(=O)[C@H](CCCNC(=N)N)NC(=O)[C@H](CO)NC3=O)NC(=O)[C@H](CCCCN)NC(=O)[C@H](CC(=O)O)NC(=O)[C@H](CC(N)=O)NC(=O)[C@H](CC(=O)O)NC(=O)[C@@H]2CCCN2C1=O [[Lys18]GpTx-1(1-34)] (H-DCLGFMRKCIPDNDKCCKPNLVCSRTHKWCKYVF-NH2; disulfide 2-17, 9-23, 16-30) | 2 nM | 16400 nM
CC[C@H](C)[C@@H]1NC(=O)[C@@H]2CSSC[C@@H]3NC(=O)[C@H](C(C)C)NC(=O)[C@H](CC(C)C)NC(=O)[C@H](CC(N)=O)NC(=O)[C@H](CCCCN)NC(=O)[C@H](CCCNC(=N)N)NC(=O)[C@H](CSSC[C@H](NC(=O)[C@@H](N)CC(=O)O)C(=O)N[C@@H](CC(C)C)C(=O)NCC(=O)N[C@@H](Cc4ccccc4)C(=O)N[C@@H](CCSC)C(=O)N[C@@H](CCCNC(=N)N)C(=O)N[C@@H](CCCCN)C(=O)N2)NC(=O)[C@H](CSSC[C@@H](C(=O)N[C@@H](CCCCN)C(=O)N[C@@H](Cc2ccc(O)cc2)C(=O)N[C@H](C(=O)N[C@@H](Cc2ccccc2)C(N)=O)C(C)C)NC(=O)[C@H](Cc2c[nH]c4ccccc24)NC(=O)[C@H](CCCCN)NC(=O)[C@H](Cc2cnc[nH]2)NC(=O)[C@H]([C@@H](C)O)NC(=O)[C@H](CCCNC(=N)N)NC(=O)[C@H](CO)NC3=O)NC(=O)[C@H](CCCCN)NC(=O)[C@H](CC(=O)O)NC(=O)[C@H](CC(N)=O)NC(=O)[C@H](CC(=O)O)NC(=O)[C@@H]2CCCN2C1=O [[Lys19]GpTx-1(1-34)] (H-DCLGFMRKCIPDNDKCCRKNLVCSRTHKWCKYVF-NH2; disulfide 2-17, 9-23, 16-30) | 3 nM | 9100 nM
CC[C@H](C)[C@@H]1NC(=O)[C@@H]2CSSC[C@@H]3NC(=O)[C@H](C(C)C)NC(=O)[C@H](CC(C)C)NC(=O)[C@H](CC(N)=O)NC(=O)[C@@H]4CCCN4C(=O)[C@H](CCCNC(=N)N)NC(=O)[C@H](CSSC[C@H](NC(=O)[C@@H](N)CC(=O)O)C(=O)N[C@@H](CC(C)C)C(=O)NCC(=O)N[C@@H](CCSC)C(=O)N[C@@H](CCSC)C(=O)N[C@@H](CCCNC(=N)N)C(=O)N[C@@H](CCCCN)C(=O)N2)NC(=O)[C@H](CSSC[C@@H](C(=O)N[C@@H](CCCCN)C(=O)N[C@@H](Cc2cn(C)c4ccccc24)C(=O)N[C@H](C(=O)N[C@@H](Cc2ccccc2)C(N)=O)C(C)C)NC(=O)[C@H](Cc2c[nH]c4ccccc24)NC(=O)[C@H](CCCCN)NC(=O)[C@H](Cc2c[nH]cn2)NC(=O)[C@H]([C@@H](C)O)NC(=O)[C@H](CCCNC(=N)N)NC(=O)[C@H](CO)NC3=O)NC(=O)[C@H](CCCCN)NC(=O)[C@H](CC(=O)O)NC(=O)[C@H](CC(N)=O)NC(=O)[C@H](CC(=O)O)NC(=O)[C@@H]2CCCN2C1=O [[Met5;1′NMeW32]GpTx-1(1-34)] (H-DCLGMMRKCIPDNDKCCRPNLVCSRTHKWCK[Trp(1-Me)]VF-NH2; disulfide 2-17, 9-23, 16-30) | 7 nM | 14800 nM
CC[C@H](C)[C@@H]1NC(=O)[C@@H]2CSSC[C@@H]3NC(=O)[C@H](C(C)C)NC(=O)[C@H](CC(C)C)NC(=O)[C@H](CC(N)=O)NC(=O)[C@@H]4CCCN4C(=O)[C@H](CCCNC(=N)N)NC(=O)[C@H](CSSC[C@H](NC(=O)[C@@H](N)CC(=O)O)C(=O)N[C@@H](CC(C)C)C(=O)NCC(=O)N[C@@H](CCSC)C(=O)N[C@@H](CC(C)C)C(=O)N[C@@H](CCCNC(=N)N)C(=O)N[C@@H](CCCCN)C(=O)N2)NC(=O)[C@H](CSSC[C@@H](C(=O)N[C@@H](CCCCN)C(=O)N[C@@H](Cc2ccc(O)cc2)C(=O)N[C@H](C(=O)N[C@@H](Cc2ccccc2)C(N)=O)C(C)C)NC(=O)[C@H](Cc2c[nH]c4ccccc24)NC(=O)[C@H](CCCCN)NC(=O)[C@H](Cc2c[nH]cn2)NC(=O)[C@H]([C@@H](C)O)NC(=O)[C@H](CCCNC(=N)N)NC(=O)[C@H](CO)NC3=O)NC(=O)[C@H](CCCCN)NC(=O)[C@H](CC(=O)O)NC(=O)[C@H](CC(N)=O)NC(=O)[C@H](CC(=O)O)NC(=O)[C@@H]2CCCN2C1=O [[Met5;Leu6]GpTx-1(1-34)] (H-DCLGMLRKCIPDNDKCCRPNLVCSRTHKWCKYVF-NH2; disulfide 2-17, 9-23, 16-30) | 270 nM | > 10000 nM
CC[C@H](C)[C@@H]1NC(=O)[C@@H]2CSSC[C@@H]3NC(=O)[C@H](C(C)C)NC(=O)[C@H](CC(C)C)NC(=O)[C@H](CC(N)=O)NC(=O)[C@@H]4CCCN4C(=O)[C@H](CCCNC(=N)N)NC(=O)[C@H](CSSC[C@H](NC(=O)[C@@H](N)CC(=O)O)C(=O)N[C@@H](CC(C)C)C(=O)NCC(=O)N(C)[C@@H](CC(C)C)C(=O)N[C@@H](CC(C)C)C(=O)N[C@@H](CCCNC(=N)N)C(=O)N[C@@H](CCCCN)C(=O)N2)NC(=O)[C@H](CSSC[C@@H](C(=O)N[C@@H](CCCCN)C(=O)N[C@@H](Cc2ccc(O)cc2)C(=O)N[C@H](C(=O)N[C@@H](Cc2ccccc2)C(N)=O)C(C)C)NC(=O)[C@H](Cc2c[nH]c4ccccc24)NC(=O)[C@H](CCCCN)NC(=O)[C@H](Cc2c[nH]cn2)NC(=O)[C@H]([C@@H](C)O)NC(=O)[C@H](CCCNC(=N)N)NC(=O)[C@H](CO)NC3=O)NC(=O)[C@H](CCCCN)NC(=O)[C@H](CC(=O)O)NC(=O)[C@H](CC(N)=O)NC(=O)[C@H](CC(=O)O)NC(=O)[C@@H]2CCCN2C1=O [[NMeLeu5;Leu6]GpTx-1(1-34)] | 12 nM | > 10000 nM
CC[C@H](C)[C@@H]1NC(=O)[C@@H]2CSSC[C@@H]3NC(=O)[C@H](C(C)C)NC(=O)[C@H](CC(C)C)NC(=O)[C@H](CC(N)=O)NC(=O)[C@@H]4CCCN4C(=O)[C@H](CCCNC(=N)N)NC(=O)[C@H](CSSC[C@H](NC(=O)[C@@H](N)CC(=O)O)C(=O)N[C@@H](CC(C)C)C(=O)NCC(=O)N(C)[C@@H](Cc4ccccc4)C(=O)N[C@@H](CC(C)C)C(=O)N[C@@H](CCCNC(=N)N)C(=O)N[C@@H](CCCCN)C(=O)N2)NC(=O)[C@H](CSSC[C@@H](C(=O)N[C@@H](CCCCN)C(=O)N[C@@H](Cc2ccc(O)cc2)C(=O)N[C@H](C(=O)N[C@@H](Cc2ccccc2)C(N)=O)C(C)C)NC(=O)[C@H](Cc2c[nH]c4ccccc24)NC(=O)[C@H](CCCCN)NC(=O)[C@H](Cc2c[nH]cn2)NC(=O)[C@H]([C@@H](C)O)NC(=O)[C@H](CCCNC(=N)N)NC(=O)[C@H](CO)NC3=O)NC(=O)[C@H](CCCCN)NC(=O)[C@H](CC(=O)O)NC(=O)[C@H](CC(N)=O)NC(=O)[C@H](CC(=O)O)NC(=O)[C@@H]2CCCN2C1=O [[NMePhe5;Leu6]GpTx-1(1-34)] | 12 nM | 11300 nM
CC[C@H](C)[C@@H]1NC(=O)[C@@H]2CSSC[C@@H]3NC(=O)[C@H](C(C)C)NC(=O)[C@H](CC(C)C)NC(=O)[C@H](CC(N)=O)NC(=O)[C@@H]4CCCN4C(=O)[C@H](CCCNC(=N)N)NC(=O)[C@H](CSSC[C@H](NC(=O)[C@@H](N)CC(=O)O)C(=O)N[C@@H](CC(C)C)C(=O)NCC(=O)N(C)[C@@H](Cc4ccccc4)C(=O)N[C@@H](CCSC)C(=O)N[C@@H](CCCNC(=N)N)C(=O)N[C@@H](CCCCN)C(=O)N2)NC(=O)[C@H](CSSC[C@@H](C(=O)N[C@@H](CCCCN)C(=O)N[C@@H](Cc2ccc(O)cc2)C(=O)N[C@H](C(=O)N[C@@H](Cc2ccccc2)C(N)=O)C(C)C)NC(=O)[C@H](Cc2c[nH]c4ccccc24)NC(=O)[C@H](CCCCN)NC(=O)[C@H](Cc2c[nH]cn2)NC(=O)[C@H]([C@@H](C)O)NC(=O)[C@H](CCCNC(=N)N)NC(=O)[C@H](CO)NC3=O)NC(=O)[C@H](CCCCN)NC(=O)[C@H](CC(=O)O)NC(=O)[C@H](CC(N)=O)NC(=O)[C@H](CC(=O)O)NC(=O)[C@@H]2CCCN2C1=O [[NMePhe5]GpTx-1(1-34)] | 18 nM | > 10000 nM
